Biological target: T1, human recombinant HDAC6 (Homo sapiens, UniProt Q9UBN7)
T1 construct: purchased Calbiochem 382180
T1 sequence (Q9UBN7 1-1215): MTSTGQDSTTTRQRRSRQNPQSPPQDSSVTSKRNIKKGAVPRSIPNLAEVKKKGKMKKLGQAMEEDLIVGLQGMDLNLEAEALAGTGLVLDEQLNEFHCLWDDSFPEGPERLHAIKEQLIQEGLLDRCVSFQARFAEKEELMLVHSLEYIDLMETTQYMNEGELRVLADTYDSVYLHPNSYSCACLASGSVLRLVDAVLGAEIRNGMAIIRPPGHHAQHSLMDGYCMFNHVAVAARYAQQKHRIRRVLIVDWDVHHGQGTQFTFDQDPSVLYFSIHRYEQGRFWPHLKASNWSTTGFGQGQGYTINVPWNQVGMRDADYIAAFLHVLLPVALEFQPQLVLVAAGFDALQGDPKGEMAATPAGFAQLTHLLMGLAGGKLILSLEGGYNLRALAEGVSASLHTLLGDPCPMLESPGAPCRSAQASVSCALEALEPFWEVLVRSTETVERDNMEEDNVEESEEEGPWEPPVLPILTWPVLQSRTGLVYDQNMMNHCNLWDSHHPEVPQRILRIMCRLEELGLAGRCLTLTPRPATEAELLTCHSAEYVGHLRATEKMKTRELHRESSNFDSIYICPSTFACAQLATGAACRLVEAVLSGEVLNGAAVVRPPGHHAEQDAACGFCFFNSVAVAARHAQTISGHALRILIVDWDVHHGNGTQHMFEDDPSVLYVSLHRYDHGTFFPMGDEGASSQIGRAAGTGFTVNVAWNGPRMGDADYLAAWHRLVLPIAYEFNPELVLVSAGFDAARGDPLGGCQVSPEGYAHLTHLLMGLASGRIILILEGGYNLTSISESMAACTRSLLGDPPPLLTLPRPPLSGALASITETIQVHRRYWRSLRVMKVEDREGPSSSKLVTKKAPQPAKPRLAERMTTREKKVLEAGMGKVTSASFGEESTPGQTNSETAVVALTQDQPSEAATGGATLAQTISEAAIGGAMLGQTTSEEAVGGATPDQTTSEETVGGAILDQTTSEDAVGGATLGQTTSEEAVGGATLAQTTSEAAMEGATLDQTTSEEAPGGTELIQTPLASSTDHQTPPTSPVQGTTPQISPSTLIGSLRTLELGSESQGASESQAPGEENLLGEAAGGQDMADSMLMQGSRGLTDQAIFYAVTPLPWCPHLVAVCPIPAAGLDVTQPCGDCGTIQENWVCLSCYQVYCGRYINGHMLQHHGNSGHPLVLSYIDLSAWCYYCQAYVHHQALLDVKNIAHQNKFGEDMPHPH
Experiment: HDAC enzyme activity inhibition assay (HDAC6, fluorimetric kit)
Type: biochemical
Details: for HDAC6 selectivity (fold): HDAC6 versus HDAC1; for IC50: same protocol as the HDAC1 test
Procedure: In order to examine the HDAC6 selectivity of the compounds of formula I of the present invention by HDAC1 and HDAC6 enzymatic activity inhibition assays, an experiment was performed using a conventional substance as a control. HDAC enzyme activity was measured using a HDAC Fluorimetric Drug Discovery Kit (BML-AK511, 516) from Enzo Life Science. For the HDAC1 enzyme activity test, human recombinant HDAC1 (BML-SE456) was used as an enzyme source, and Fluor de Lys®-“SIRT1 (BNL-KI177) was used as a substrate. A 5-fold dilution of the compound was seeded into a 96-well plate, and then 0.3 μg of the enzyme and 10 μM of the substrate were added to each well of the plate and allowed to react at 30° C. for 60 minutes. Then, Fluor de Lys®-Developer II (BML-KI176) was added thereto and allowed to react for 30 minutes, after which the fluorescence value (Ex 360, Em 460) was measured using a multi-plate reader (Flexstation 3, Molecular Device). The HDAC6 enzyme was tested using human recombinant HDAC6 (382180) from Calbiochem, according to the same protocol as the HDAC1 enzyme activity test method. Based on the resulting values, each IC50 value was calculated using GraphPad Prism4.0 program.

| SMILES | HDAC6 selectivity (fold) | IC50 [µM] |
| --- | --- | --- |
| CN1CC(C(=O)N(Cc2ccc(-c3nnc(C(F)(F)F)o3)cc2)c2ccccc2)C1 [Compound 11138, 1-methyl-N-phenyl-N-(4-(5-(trifluoromethyl)-1,3,4-oxadiazol-2-yl)benzyl)azetidine-3-carboxamide] | 351 | 0.285 |
| O=C(C1CCS(=O)(=O)CC1)N(Cc1ccc(-c2nnc(C(F)F)o2)cc1F)c1ccc(F)c(Cl)c1 [Compound 11603, N-(3-chloro-4-fluorophenyl)-N-(4-(5-(difluoromethyl)-1,3,4-oxadiazol-2-yl)-2-fluorobenzyl)tetrahydro-2H-thiopyran-4-carboxamide 1,1-dioxide] | 685 | 0.146 |
| O=C(C1CC1)N1CCN(CC(=O)N(Cc2ccc(-c3nnc(C(F)F)o3)cc2F)c2ccc(F)c(Cl)c2)CC1 [Compound 11612, N-(3-chloro-4-fluorophenyl)-2-(4-(cyclopropanecarbonyl)piperazin-1-yl)-N-(4-(5-(difluoromethyl)-1,3,4-oxadiazol-2-yl)-2-fluorobenzyl)acetamide] | 535 | 0.187 |
| CS(=O)(=O)N1CCC(C(=O)N(Cc2ccc(-c3nnc(C(F)(F)F)o3)cc2F)c2ccccc2)CC1 [Compound 11207, N-(2-fluoro-4-(5-(trifluoromethyl)-1,3,4-oxadiazol-2-yl)benzyl)-1-(methylsulfonyl)-N-phenylpiperidine-4-carboxamide] | 813 | 0.123 |
| CCC(=O)N1CCC(C(=O)N(Cc2ccc(-c3nnc(C(F)(F)F)o3)cc2)c2ccccc2)CC1 [Compound 11162, N-phenyl-1-propionyl-N-(4-(5-(trifluoromethyl)-1,3,4-oxadiazol-2-yl)benzyl)piperidine-4-carboxamide] | 483 | 0.207 |
| CCCC(=O)N(Cc1ccc(-c2nnc(C(F)F)o2)cc1F)c1cccc(F)c1 [Compound 11357, N-(4-(5-(difluoromethyl)-1,3,4-oxadiazol-2-yl)-2-fluorobenzyl)-N-(3-fluorophenyl)butyramide] | 1149 | 0.087 |
| CS(=O)(=O)N1CCC(C(=O)N(Cc2ccc(-c3nnc(C(F)(F)F)o3)cc2)c2ccccc2)CC1 [Compound 11165, 1-(methylsulfonyl)-N-phenyl-N-(4-(5-(trifluoromethyl)-1,3,4-oxadiazol-2-yl)benzyl)piperidine-4-carboxamide] | 800 | 0.125 |
| CC(C)C(=O)N1CCC(C(=O)N(Cc2ccc(-c3nnc(C(F)(F)F)o3)cc2)c2ccccc2)CC1 [Compound 11163, 1-isobutyryl-N-phenyl-N-(4-(5-(trifluoromethyl)-1,3,4-oxadiazol-2-yl)benzyl)piperidine-4-carboxamide] | 452 | 0.221 |
| CC(=O)N(Cc1ccc(-c2nnc(C(F)(F)F)o2)cc1F)c1ccccc1 [Compound 11246, N-(2-fluoro-4-(5-(trifluoromethyl)-1,3,4-oxadiazol-2-yl)benzyl)-N-phenylacetamide] | 758 | 0.132 |
| CC(C)(C)OC(=O)N1CC(C(=O)N(Cc2ccc(-c3nnc(C(F)(F)F)o3)cc2)c2ccccc2)C1 [Compound 11134, tert-butyl 3-(phenyl(4-(5-(trifluoromethyl)-1,3,4-oxadiazol-2-yl)benzyl)carbamoyl)azetidine-1-carboxylate] | 109 | 0.914 |
| CC(=O)N(Cc1ccc(-c2nnc(C(F)(F)F)o2)cc1F)c1cccc(F)c1 [Compound 11340, N-(2-fluoro-4-(5-(trifluoromethyl)-1,3,4-oxadiazol-2-yl)benzyl)-N-(3-fluorophenyl)acetamide] | 1087 | 0.092 |
| CS(=O)(=O)N1CC(C(=O)N(Cc2ccc(-c3nnc(C(F)(F)F)o3)cc2)c2ccccc2)C1 [Compound 11160, 1-(methylsulfonyl)-N-phenyl-N-(4-(5-(trifluoromethyl)-1,3,4-oxadiazol-2-yl)benzyl)azetidine-3-carboxamide] | 606 | 0.165 |

Second part, the compound after the results:

| HDAC6 selectivity (fold) | IC50 [µM] | SMILES |
| --- | --- | --- |
| 2500 | 0.04 | CN1CCC(C(=O)N(Cc2ccc(-c3nnc(C(F)F)o3)cn2)c2ccccc2)CC1 [Compound 11414, N-((5-(5-(difluoromethyl)-1,3,4-oxadiazol-2-yl)pyridin-2-yl)methyl)-1-methyl-N-phenylpipetidine-4-carboxamide] |
| 2857 | 0.035 | CC(=O)N1CC(C(=O)N(Cc2ccc(-c3nnc(C(F)F)o3)cc2F)c2ccccc2)C1 [Compound 11241, 1-acetyl-N-(4-(5-(difluoromethyl)-1,3,4-oxadiazol-2-yl)-2-fluorobenzyl)-N-phenylazetidine-3-carboxamide] |
| 1961 | 0.051 | CCC(=O)N(Cc1ccc(-c2nnc(C(F)F)o2)cc1F)c1cccc(F)c1 [Compound 11356, N-(4-(5-(difluoromethyl)-1,3,4-oxadiazol-2-yl)-2-fluorobenzyl)-N-(3-fluorophenyl)propionamide] |
| 2326 | 0.043 | CC(C)C(=O)N1CC(C(=O)N(Cc2ccc(-c3nnc(C(F)F)o3)cc2F)c2cccc(F)c2)C1 [Compound 11332, N-(4-(5-(difluoromethyl)-1,3,4-oxadiazol-2-yl)-2-fluorobenzyl)-N-(3-fluorophenyl)-1-isobutyrylazetidine-3-carboxamide] |
| 2222 | 0.045 | CN1CC(C(=O)N(Cc2ccc(-c3nnc(C(F)F)o3)cc2F)c2ccccc2)C1 [Compound 11238, N-(4-(5-(difluoromethyl)-1,3,4-oxadiazol-2-yl)-2-fluorobenzyl)-1-methyl-N-phenylazetidine-3-carboxamide] |
| 2564 | 0.039 | O=C(c1ccncc1)N(Cc1ccc(-c2nnc(C(F)F)o2)cc1F)c1cccc(F)c1 [Compound 11189, N-(4-(5-(difluoromethyl)-1,3,4-oxadiazol-2-yl)-2-fluorobenzyl)-N-(3-fluorophenyl)isonicotinamide] |
| 1163 | 0.086 | O=C(CN1CCOCC1)N(Cc1ccc(-c2nnc(C(F)F)o2)cc1F)c1ccc(F)c(Cl)c1 [Compound 11535, N-(3-chloro-4-fluorophenyl)-N-(4-(5-(difluoromethyl)-1,3,4-oxadiazol-2-yl)-2-fluorobenzyl)-2-morpholinoacetamide] |
| 2564 | 0.039 | CCC(=O)N1CC(C(=O)N(Cc2ccc(-c3nnc(C(F)F)o3)cc2F)c2ccccc2)C1 [Compound 11242, N-(4-(5-(difluoromethyl)-1,3,4-oxadiazol-2-yl)-2-fluorobenzyl)-N-phenyl-1-propionylazetidine-3-carboxamide] |
| 1923 | 0.052 | CN1CC(C(=O)N(Cc2ccc(-c3nnc(C(F)(F)F)o3)cc2F)c2ccccc2)C1 [Compound 11232, N-(2-fluoro-4-(5-(trifluoromethyl)-1,3,4-oxadiazol-2-yl)benzyl)-1-methyl-N-phenylazetidine-3-carboxamide] |
| 1587 | 0.063 | NC(=O)[C@@H]1CCCN1CC(=O)N(Cc1ccc(-c2nnc(C(F)F)o2)cc1F)c1ccc(F)c(Cl)c1 [Compound 11538, (S)-1-(2-((3-chloro-4-fluorophenyl) (4-(5-(difluoromethyl)-1,3,4-oxadiazol-2-yl)-2-fluorobenzyl)amino)-2-oxoethyl)pyrrolidine-2-carboxamide] |

— patent US10584117B2, “1,3,4-oxadiazole amide derivative compound as histone deacetylase 6 inhibitor, and pharmaceutical composition containing same” (Chong Kun Dang Pharmaceutical Corp., priority 2015, dated 2020)
